The values below come from patent US8183248B2, “Substituted pyrrolo[2,3-d]pyrimidines and compositions as protein kinase inhibitors” (IRM LLC, priority 2005, dated 2012).

Assay [1] has as its target T1, wild type Bcr-abl (Ba/F3 cells) (Homo sapiens, UniProt P00519).
T1 construct: expressed in transfected cells; host or cells: Ba/F3 (murine pro-B cells); the other entry of the earlier key: BCR (P11274, Breakpoint cluster region protein)
Put plainly: Proliferation of Ba/F3 cells expressing wild type Bcr-abl. The format is cell-based. Here is the method: (§1) 32D-p210 cells are plated into 96 well TC plates at a density of 15,000 cells per well. 50 μL of two fold serial dilutions of the test compound (Cmax is 40 μM) are added to each well (STI571 is included as a positive control). After incubating the cells for 48 hours at 37° C., 5% CO2, 15 μL of MTT (Promega) is added to each well and the cells are incubated for an additional 5 hours. The optical density at 570 nm is quantified spectrophotometrically and IC50 values, the concentration of compound required for 50% inhibition, determined from a dose response curve.
(§2) Compounds of the invention are tested for their antiproliferative effect on Ba/F3 cells expressing either wild type or the mutant forms of BCR-Abl (G250E, E255V, T315I, F317L, M351T) that confers resistance or diminished sensitivity to STI571. The antiproliferative effect of these compounds on the mutant-BCR-Abl expressing cells and on the non transformed cells were tested at 10, 3.3, 1.1 and 0.37 μM as described above (in media lacking IL3). The IC50 values of the compounds lacking toxicity on the untransformed cells were determined from the dose response curves obtained as describe above.

The target in the next assay is T2, FGFR3(h) (Homo sapiens, UniProt P22607).
T2 construct: purchased Upstate
Put plainly: Upstate KinaseProfiler radio-enzymatic filter binding assay. The format is biochemical. The settings on record: read-out: percentage inhibition FGFR3(h). Here is the method: (§3) Compounds of the invention are assessed for their ability to inhibit individual members of the kinase panel. The compounds are tested in duplicates at a final concentration of 10 μM following this generic protocol. Note that the kinase buffer composition and the substrates vary for the different kinases included in the “Upstate KinaseProfiler™” panel. Kinase buffer (2.5 μL, 10×—containing MnCl2 when required), active kinase (0.001-0.01 Units; 2.5 μL), specific or Poly(Glu4-Tyr) peptide (5-500 μM or 0.01 mg/ml) in kinase buffer and kinase buffer (50 μM; 5 μL) are mixed in an eppendorf on ice. A Mg/ATP mix (10 μL; 67.5 (or 33.75) mM MgCl2, 450 (or 225) μM ATP and 1 μCi/μl [γ-^32P]-ATP (3000 Ci/mmol)) is added and the reaction is incubated at about 30° C. for about 10 minutes. The reaction mixture is spotted (20 μL) onto a 2 cm×2 cm P81 (phosphocellulose, for positively charged peptide substrates) or Whatman No. 1 (for Poly (Glu4-Tyr) peptide substrate) paper square. The assay squares are washed 4 times, for 5 minutes each, with 0.75% phosphoric acid and washed once with acetone for 5 minutes. The assay squares are transferred to a scintillation vial, 5 ml scintillation cocktail are added and ^32P incorporation (cpm) to the peptide substrate is quantified with a Beckman scintillation counter. Percentage inhibition is calculated for each reaction.

For the next assay, the target named is T3, Rsk1(h) (Homo sapiens, UniProt Q15418).
T3 construct: purchased Upstate
The description is as above. The format is biochemical. The settings on record: read-out: percentage inhibition Rsk1(h). Here is the method:
as §3

In the next assay the target is T4, ROCK-II(h) (Homo sapiens, UniProt O75116).
T4 construct: purchased Upstate
Described as above. The format is biochemical. The settings on record: read-out: percentage inhibition ROCK-II(h). Here is the method:
as §3

In a further assay the target is T5, cSRC(h) (Homo sapiens, UniProt P12931).
T5 construct: purchased Upstate
The assay is described as above. The format is biochemical. Particulars: read-out: percentage inhibition cSRC(h). Here is the method:
as §3

In the next assay the target is T6, MKK4(m) (Mus musculus, UniProt P47809).
T6 construct: purchased Upstate
The assay is described as above. The settings on record: read-out: percentage inhibition MKK4(m). It is filed as biochemical. Here is the method: as §3

For another assay, the target named is T7, c-RAF(h) (Homo sapiens, UniProt P04049).
T7 construct: purchased Upstate
The description is as above. It is filed as biochemical. The settings on record: read-out: percentage inhibition c-RAF(h). Here is the method:
as §3

The next assay addresses T8, Bmx(h) (Homo sapiens, UniProt P51813).
T8 construct: purchased Upstate
Described as above. It is filed as biochemical. The settings on record: read-out: percentage inhibition Bmx(h). Here is the method: as §3

Another assay concerns the target T9, SAPK3(h) (Homo sapiens, UniProt P53778).
T9 construct: purchased Upstate
The description is as above. The format is biochemical. The settings on record: read-out: percentage inhibition SAPK3(h). Here is the method:
as §3

For another assay, the target named is T10, TrkB(h) (Homo sapiens, UniProt Q16620).
T10 construct: purchased Upstate
The assay is described as above. It is filed as biochemical. The settings on record: read-out: percentage inhibition TrkB(h). Here is the method:
as §3

Assay [2] concerns the target T11, F317L Bcr-abl (Ba/F3 cells) (Homo sapiens, UniProt P00519, F317L).
T11 construct: expressed in transfected cells; host or cells: Ba/F3 (murine pro-B cells); the other entry of the earlier key: BCR (P11274, Breakpoint cluster region protein)
Put plainly: Proliferation of Ba/F3 cells expressing F317L Bcr-abl. The format is cell-based. Here is the method:
as §1, §2

For the next assay, the target named is B-RAF (Homo sapiens, UniProt P15056). In words: b-Raf Enzymatic Assay. The format is biochemical. Here is the method:
Compounds of the invention are tested for their ability to inhibit the activity of b-Raf. The assay is carried out in 384-well MaxiSorp plates (NUNC) with black walls and clear bottom. The substrate, IκBα is diluted in DPBS (1:750) and 15 μl is added to each well. The plates are incubated at 4° C. overnight and washed 3 times with TBST (25 mM Tris, pH 8.0, 150 mM NaCl and 0.05% Tween-20) using the EMBLA plate washer. Plates are blocked by Superblock (15 μl/well) for 3 hours at room temperature, washed 3 times with TBST and pat-dried. Assay buffer containing 20 μM ATP (10 μl) is added to each well followed by 100 nl or 500 nl of compound. B-Raf is diluted in the assay buffer (1 μl into 25 μl) and 10 μl of diluted b-Raf is added to each well (0.4 μg/well). The plates are incubated at room temperature for 2.5 hours. The kinase reaction is stopped by washing the plates 6 times with TBST. Phosph-IκBα (Ser32/36) antibody is diluted in Superblock (1:10,000) and 15 μl is added to each well. The plates are incubated at 4° C. overnight and washed 6 times with TBST. AP-conjugated goat-anti-mouse IgG is diluted in Superblock (1:1,500) and 15 μl is added to each well. Plates are incubated at room temperature for 1 hour and washed 6 times with TBST. […] Plates are read on Acquest or Analyst GT using a Fluorescence Intensity Program (Excitation 455 nm, Emission 580 nm).

Assay [3] has as its target T12, G250E Bcr-abl (Ba/F3 cells) (Homo sapiens, UniProt P00519, G250E).
T12 construct: expressed in transfected cells; host or cells: Ba/F3 (murine pro-B cells); the other entry of the earlier key: BCR (P11274, Breakpoint cluster region protein)
In words: Proliferation of Ba/F3 cells expressing G250E Bcr-abl. The format is cell-based. Here is the method: as §1, §2

Another assay addresses FLT-3 (Homo sapiens, UniProt P36888, cells depend on it, form not given). In words: FLT3 (Cellular Assay), Ba/F3-FLT3-ITD proliferation. It is filed as cell-based. Particulars: read-out: IC50 for FLT-3.

Each structure is given as a SMILES string.

T3 sequence (Q15418 whole entry): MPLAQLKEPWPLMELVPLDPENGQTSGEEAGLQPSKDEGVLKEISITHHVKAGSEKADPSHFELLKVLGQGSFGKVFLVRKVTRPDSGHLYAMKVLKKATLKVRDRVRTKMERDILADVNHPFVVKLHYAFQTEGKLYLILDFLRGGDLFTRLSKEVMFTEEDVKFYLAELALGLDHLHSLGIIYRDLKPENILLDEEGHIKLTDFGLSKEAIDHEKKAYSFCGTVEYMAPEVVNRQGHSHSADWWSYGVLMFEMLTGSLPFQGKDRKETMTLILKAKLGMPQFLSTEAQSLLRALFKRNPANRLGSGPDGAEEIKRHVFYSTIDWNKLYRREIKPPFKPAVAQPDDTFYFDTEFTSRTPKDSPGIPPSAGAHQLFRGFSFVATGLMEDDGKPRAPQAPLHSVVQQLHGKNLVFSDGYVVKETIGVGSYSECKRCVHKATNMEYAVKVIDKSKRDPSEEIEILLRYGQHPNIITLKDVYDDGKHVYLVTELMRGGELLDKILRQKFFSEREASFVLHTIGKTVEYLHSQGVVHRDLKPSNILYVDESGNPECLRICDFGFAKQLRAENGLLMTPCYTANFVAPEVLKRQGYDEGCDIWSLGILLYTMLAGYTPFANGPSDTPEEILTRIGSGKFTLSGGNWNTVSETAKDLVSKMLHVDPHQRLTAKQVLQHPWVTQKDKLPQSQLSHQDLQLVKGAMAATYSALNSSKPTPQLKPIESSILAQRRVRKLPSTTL
T7 sequence (P04049 whole entry): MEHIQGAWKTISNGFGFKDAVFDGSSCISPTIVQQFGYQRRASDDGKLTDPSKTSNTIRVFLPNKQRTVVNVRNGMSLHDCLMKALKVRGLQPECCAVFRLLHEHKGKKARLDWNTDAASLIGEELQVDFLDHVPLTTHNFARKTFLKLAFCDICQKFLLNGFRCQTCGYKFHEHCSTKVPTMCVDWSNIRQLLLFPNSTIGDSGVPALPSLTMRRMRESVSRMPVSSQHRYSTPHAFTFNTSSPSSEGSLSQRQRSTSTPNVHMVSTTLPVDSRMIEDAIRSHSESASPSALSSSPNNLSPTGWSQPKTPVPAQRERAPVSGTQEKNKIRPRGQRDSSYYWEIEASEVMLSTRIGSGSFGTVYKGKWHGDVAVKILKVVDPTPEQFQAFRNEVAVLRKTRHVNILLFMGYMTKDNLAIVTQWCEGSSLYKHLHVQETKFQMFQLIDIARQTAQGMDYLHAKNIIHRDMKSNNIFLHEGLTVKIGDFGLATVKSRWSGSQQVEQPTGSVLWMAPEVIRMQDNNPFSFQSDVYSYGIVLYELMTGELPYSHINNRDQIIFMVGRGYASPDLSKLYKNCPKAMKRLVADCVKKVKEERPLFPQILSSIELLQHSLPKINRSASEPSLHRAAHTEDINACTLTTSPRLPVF
B-RAF, sequence (P15056 whole entry): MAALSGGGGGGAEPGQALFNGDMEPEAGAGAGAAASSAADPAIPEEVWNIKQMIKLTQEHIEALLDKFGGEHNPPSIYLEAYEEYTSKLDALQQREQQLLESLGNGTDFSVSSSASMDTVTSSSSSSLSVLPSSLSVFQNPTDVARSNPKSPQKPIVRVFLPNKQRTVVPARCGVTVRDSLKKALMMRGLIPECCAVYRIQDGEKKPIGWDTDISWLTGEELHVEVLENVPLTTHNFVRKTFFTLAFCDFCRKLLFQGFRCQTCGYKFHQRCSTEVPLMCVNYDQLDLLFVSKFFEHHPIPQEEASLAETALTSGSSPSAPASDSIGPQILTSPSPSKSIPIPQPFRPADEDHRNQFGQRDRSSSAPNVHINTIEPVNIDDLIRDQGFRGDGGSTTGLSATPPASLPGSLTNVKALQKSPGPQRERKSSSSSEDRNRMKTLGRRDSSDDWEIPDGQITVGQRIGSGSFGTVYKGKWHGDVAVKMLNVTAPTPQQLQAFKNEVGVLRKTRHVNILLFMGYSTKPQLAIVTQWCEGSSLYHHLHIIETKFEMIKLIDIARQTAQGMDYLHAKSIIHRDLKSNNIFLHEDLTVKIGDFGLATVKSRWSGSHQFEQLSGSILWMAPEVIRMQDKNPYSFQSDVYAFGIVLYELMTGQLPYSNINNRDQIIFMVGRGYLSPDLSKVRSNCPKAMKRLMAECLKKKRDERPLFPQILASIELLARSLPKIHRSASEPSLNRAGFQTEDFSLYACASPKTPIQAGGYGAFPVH
T4 sequence (O75116 whole entry): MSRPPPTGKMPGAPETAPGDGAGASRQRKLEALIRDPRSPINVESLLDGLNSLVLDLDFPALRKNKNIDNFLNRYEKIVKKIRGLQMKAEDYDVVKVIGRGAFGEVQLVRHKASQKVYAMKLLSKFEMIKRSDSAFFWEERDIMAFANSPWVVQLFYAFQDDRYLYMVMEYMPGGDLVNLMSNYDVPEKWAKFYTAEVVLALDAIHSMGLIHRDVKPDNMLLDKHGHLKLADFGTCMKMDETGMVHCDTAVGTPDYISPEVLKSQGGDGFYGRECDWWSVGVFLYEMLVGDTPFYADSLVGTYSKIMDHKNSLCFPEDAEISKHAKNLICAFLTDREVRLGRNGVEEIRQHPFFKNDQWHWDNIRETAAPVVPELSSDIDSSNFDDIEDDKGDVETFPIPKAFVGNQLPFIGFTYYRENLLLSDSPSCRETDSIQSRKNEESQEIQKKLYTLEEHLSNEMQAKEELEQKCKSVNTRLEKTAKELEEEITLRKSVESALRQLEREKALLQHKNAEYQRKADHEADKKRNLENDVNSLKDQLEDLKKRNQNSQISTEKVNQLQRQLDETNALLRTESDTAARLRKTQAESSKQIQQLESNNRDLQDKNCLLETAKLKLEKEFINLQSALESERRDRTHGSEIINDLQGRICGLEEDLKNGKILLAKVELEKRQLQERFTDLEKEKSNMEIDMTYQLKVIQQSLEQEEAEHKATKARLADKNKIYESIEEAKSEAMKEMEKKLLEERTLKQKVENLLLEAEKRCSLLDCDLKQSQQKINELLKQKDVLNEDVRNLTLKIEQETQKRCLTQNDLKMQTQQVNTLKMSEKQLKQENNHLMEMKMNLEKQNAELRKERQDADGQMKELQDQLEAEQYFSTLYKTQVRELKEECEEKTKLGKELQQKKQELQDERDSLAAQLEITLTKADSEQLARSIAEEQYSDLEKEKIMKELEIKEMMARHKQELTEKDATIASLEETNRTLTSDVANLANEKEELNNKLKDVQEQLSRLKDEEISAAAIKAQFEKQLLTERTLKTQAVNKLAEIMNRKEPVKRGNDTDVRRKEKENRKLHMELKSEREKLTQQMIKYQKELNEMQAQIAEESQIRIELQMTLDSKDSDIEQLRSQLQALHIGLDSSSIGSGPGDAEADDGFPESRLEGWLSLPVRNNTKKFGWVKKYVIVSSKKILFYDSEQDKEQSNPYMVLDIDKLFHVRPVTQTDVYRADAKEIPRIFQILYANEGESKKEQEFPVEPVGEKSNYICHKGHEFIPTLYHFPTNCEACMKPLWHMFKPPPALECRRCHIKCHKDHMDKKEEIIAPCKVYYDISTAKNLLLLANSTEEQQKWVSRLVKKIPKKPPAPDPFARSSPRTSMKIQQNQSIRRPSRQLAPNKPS
T5 sequence (P12931 whole entry): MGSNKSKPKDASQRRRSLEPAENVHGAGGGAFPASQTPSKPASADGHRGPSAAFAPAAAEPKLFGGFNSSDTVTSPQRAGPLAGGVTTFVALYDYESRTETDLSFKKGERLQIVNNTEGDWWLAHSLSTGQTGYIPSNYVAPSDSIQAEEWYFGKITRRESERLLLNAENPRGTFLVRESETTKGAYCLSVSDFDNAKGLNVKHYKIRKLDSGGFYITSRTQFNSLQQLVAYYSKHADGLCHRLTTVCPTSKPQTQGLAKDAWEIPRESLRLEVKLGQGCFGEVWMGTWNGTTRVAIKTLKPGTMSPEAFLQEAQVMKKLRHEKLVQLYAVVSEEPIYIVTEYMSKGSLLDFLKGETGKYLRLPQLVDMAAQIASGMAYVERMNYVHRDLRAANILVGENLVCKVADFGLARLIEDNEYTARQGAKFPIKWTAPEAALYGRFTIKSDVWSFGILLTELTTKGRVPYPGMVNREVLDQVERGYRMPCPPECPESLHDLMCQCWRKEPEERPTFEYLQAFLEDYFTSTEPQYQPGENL
T6 sequence (P47809 whole entry): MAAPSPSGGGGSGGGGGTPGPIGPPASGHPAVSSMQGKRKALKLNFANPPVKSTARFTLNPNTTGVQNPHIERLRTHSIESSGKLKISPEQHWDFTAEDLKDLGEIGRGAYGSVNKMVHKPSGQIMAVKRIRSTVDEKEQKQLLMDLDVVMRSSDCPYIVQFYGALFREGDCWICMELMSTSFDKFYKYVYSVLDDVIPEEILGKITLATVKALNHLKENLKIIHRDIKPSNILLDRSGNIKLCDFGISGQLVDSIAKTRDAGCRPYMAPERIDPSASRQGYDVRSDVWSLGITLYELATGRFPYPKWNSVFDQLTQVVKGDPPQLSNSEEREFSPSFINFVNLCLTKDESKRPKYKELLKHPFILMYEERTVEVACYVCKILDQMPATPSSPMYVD
T9 sequence (P53778 whole entry): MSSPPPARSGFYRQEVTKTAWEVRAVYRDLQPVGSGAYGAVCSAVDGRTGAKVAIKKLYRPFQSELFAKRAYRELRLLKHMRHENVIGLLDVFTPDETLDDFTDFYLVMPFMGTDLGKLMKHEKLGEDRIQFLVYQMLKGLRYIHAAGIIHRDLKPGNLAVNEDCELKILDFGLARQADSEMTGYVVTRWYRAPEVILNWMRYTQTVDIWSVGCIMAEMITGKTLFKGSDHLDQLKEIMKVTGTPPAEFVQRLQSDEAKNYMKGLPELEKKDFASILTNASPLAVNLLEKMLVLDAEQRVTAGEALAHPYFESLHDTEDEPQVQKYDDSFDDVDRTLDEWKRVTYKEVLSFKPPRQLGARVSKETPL

Consider `CCN1CCN(Cc2ccc(NC(=O)c3ccc(C)c(NC(=O)N(C)c4ncnc5[nH]ccc45)c3)cc2C(F)(F)F)CC1` [Example 4, N-[4-(4-Ethyl-piperazin-1-ylmethyl)-3-trifluoromethyl-phenyl]-4-methyl-3-[3-methyl-3-(7H-pyrrolo[2,3-d]pyrimidin-4-yl)-ureido]-benzamide], for which the IC50 was below 5 nM in assay [1], below 5 nM in assay [2], 100 nM against B-RAF and below 5 nM in assay [3]. In addition, the inhibition at 10 µM on FGFR3(h) is 98%; on Rsk1(h) it was 95%; on ROCK-II(h) it was 78%; at cSRC(h) it was 99%; on MKK4(m), 87%; on c-RAF(h), 97%. The inhibition at 10 µM at Bmx(h) came to 100%; at SAPK3(h) it was 92%; on TrkB(h) it was 99%. In addition, at FLT-3, the GI50 amounted to 15 nM.
